Reference: US20080027027A1, “Lactosucrose High Content Saccharide, Its Preparation and Uses” (priority 2004, published 2008)
Like-named read-outs stand apart in the source and are kept apart here.

Key:
[1] = crystal obtained from 90% (v/v) ethanol solution, Avigad 1957; cited from earlier work
[2] = Hygroscopicity of solid lactosucrose products under high temperature and humidity; type: physicochemical
Text: While, it has been known that a powdery saccharide, comprising lactosucrose with a lowered hygroscopicity and relatively high stability, can be obtained by elevating the purity of lactosucrose (see Japanese Patent Kokai No. 281,795/92).
To solve the above objects, the present inventors studied on a process for producing lactosucrose, using β-fructofuranosidase, from the viewpoints of the origin of β-fructofuranosidase and reaction condition as well as the combination with sucrose-unassimilable yeast. It has been thought that the lactosucrose content in the reaction mixture reaches maximum about 65%, on a saccharide composition basis, even in the case of using β-fructofuranosidase and invertase-deficient yeast.
According to conventional methods, lactosucrose high content fraction, obtained by the method in Example 4, was filtrated, deionized using ion-exchange resin, decolored using activated charcoal, and concentrated under a reduced pressure to give a moisture content of about 25% (w/w). The resulting concentrate was placed in a crystallizer, admixed with 1% (w/w) of seed crystal and gradually cooled to about 30° C. in 24 hours. The resulting massecuite was centrifuged and crystalline lactosucrose pentahydrate was obtained in a yield of about 40%. […]

Structure (SMILES)	hygroscopicity [1]	hygroscopicity ([2]; 27° C. and a relative humidity of 75%)	hygroscopicity ([2]; condition of high-temperature and humidity in summer)
O.O.O.O.O.OCC1OC(OC2C(CO)OC(OC3(CO)OC(CO)C(O)C3O)C(O)C2O)C(O)C(O)C1O (stereo not drawn) [crystalline lactosucrose pentahydrate]	strong hygroscopicity	–	–
OC[C@H]1O[C@@H](O[C@H]2[C@H](O)[C@@H](O)[C@@H](O[C@]3(CO)O[C@H](CO)[C@@H](O)[C@@H]3O)O[C@@H]2CO)[C@H](O)[C@@H](O)[C@H]1O [crystalline lactosucrose, β-D-galactosyl-(1,4)-α-D-glucosyl-(1,2)-β-D-fructoside]	–	low hygroscopicity	no substantial hygroscopicity
